Data from article PMC12263630 (Frontiers in Pharmacology, 2025).
Where two headings read alike, the source gives them in different places.

Experiments:
[1] = molecular target: T1, human α2A adrenergic receptor (Homo sapiens, UniProt P08913); experiment: [35S]GTPγS binding assay, α2A; type: biochemical; settings: α2AR; relative to maximal response of UK-14304
T1 construct: expressed in transfected cells; host or cells: Chem-1 (rat hematopoietic cell line), membranes
T1 sequence (P08913 1-465): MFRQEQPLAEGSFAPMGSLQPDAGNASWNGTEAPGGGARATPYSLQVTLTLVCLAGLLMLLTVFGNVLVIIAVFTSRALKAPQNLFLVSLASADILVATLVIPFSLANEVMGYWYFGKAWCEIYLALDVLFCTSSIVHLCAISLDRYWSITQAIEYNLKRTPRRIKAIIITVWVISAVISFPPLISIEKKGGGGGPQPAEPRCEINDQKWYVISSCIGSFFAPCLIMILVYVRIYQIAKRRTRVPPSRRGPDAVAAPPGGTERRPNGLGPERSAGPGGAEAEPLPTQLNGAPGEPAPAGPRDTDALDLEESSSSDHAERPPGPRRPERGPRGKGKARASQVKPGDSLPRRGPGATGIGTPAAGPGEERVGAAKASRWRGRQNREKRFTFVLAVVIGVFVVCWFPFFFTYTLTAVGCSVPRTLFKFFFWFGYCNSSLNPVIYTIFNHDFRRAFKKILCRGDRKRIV
Method: (§1) Cells were transfected with constructs encoding either human α2A (Chem-1, rat hematopoietic cell line), or α2B or α2C (Cho-K1, Chinese hamster ovary cell line) adrenergic receptors. Each test compound was prepared in DMSO at 10 mM and diluted to indicated concentrations in the incubation buffer (20 mM HEPES, 100 mM NaCl, 10 mM MgCl2, 1 mM DTT, 1 mM EDTA, pH 7.4.
(§2) Binding data were generated as duplicates. […] Three parameter logistic equations were fitted to the data to obtain EC50 and Emax values.

human α2C adrenoceptor = molecular target: T2, human α2C adrenoceptor (Homo sapiens, UniProt P18825); experiment: β-arrestin recruitment chemiluminescent assay (PathHunter), α2C; type: cell-based; settings: α2CR; for Max activity: relative to UK-14304
T2 construct: expressed in transfected cells
T2 sequence (P18825 1-462): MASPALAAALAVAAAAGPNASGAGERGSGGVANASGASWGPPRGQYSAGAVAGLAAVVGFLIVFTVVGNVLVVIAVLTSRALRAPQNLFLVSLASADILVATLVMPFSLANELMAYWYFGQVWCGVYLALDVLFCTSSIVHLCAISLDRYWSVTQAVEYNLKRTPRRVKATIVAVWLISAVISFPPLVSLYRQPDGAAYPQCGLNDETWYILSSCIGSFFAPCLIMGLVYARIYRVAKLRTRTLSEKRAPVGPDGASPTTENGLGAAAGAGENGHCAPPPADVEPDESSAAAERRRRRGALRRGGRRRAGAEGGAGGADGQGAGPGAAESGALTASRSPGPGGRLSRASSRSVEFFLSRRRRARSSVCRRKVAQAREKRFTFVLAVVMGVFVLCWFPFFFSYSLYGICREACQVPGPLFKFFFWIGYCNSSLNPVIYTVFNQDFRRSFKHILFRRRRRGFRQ
Method: (§3) PathHunter cell lines were expanded from freezer stocks according to standard procedures. Cells were seeded in a total volume of 20 μL into white walled, 384-well microplates and incubated at 37°C for the appropriate time prior to testing. Intermediate dilution of sample stocks was performed to generate 5X sample in assay buffer. […] Vehicle concentration was 1%. […] Microplates were read following signal generation with a PerkinElmer Envision™ instrument for chemiluminescent signal detection.

[2] = molecular target: T3, human α2C adrenergic receptor (Homo sapiens, UniProt P18825); experiment: [35S]GTPγS binding assay, α2C; type: biochemical; settings: for Max activity / EC50: α2CR; for Max activity: relative to maximal response of UK-14304; for EC50: [35S]GTPγS binding
T3 sequence (P18825 1-462): T2 sequence (P18825 1-462)
Method: as §1, §2

human α2A adrenoceptor = molecular target: T4, human α2A adrenoceptor (Homo sapiens, UniProt P08913); experiment: β-arrestin recruitment chemiluminescent assay (PathHunter), α2A; type: cell-based; settings: α2AR, relative to UK-14304
T4 construct: expressed in transfected cells
T4 sequence (P08913 1-465): T1 sequence (P08913 1-465)
Method: as §3

[3] = assumed for free plasma calculation; ref Bol et al., 1997; cited from earlier work
sleep onset latency = test system: sleep onset latency
From the text: Chow and water were provided ad libitum for the duration of the study.

[4] = test system: stress-induced immobility; experiment: Forced swim test; type: in vivo, SD rats; settings: versus vehicle; for immobility time: 60 min prior
Method: A total of 78 male SD rats (9–10 weeks old) were procured from Hylasco Biotechnology Pvt. Ltd., Hyderabad, India and were divided into seven groups (9–12 animals per group). Animals were housed in an environmentally controlled room at 22°C ± 3°C and relative humidity of 30–70 percent. Adequate fresh air supply of 12–15 air changes/hour was maintained. The temperature was maintained at 20°C–23°C. […] The lights of the acclimatization area were switched off at 06:00 p.m. Two rats per cage were housed in sterilized suspended standard, polysulfone cages, (Size: approximately L425 x B266 x H185 mm), with stainless steel top grills having facilities for holding pelleted food and drinking water in polycarbonate bottles with stainless steel sipper tubes. During the study period animals were housed in a single room. Animals received food and water ad libitum.
The test was carried out in transparent cylindrical glass containers measuring 46 cm in height and 20 cm in diameter. The containers were filled with water (23°C–25 °C) to a depth of 30 cm. Clean drying cages, heat lamps and heat pads were used for the animals that have finished the procedure to avoid hypothermia. The test was carried out in Dark Phase. […] A red bulb of 50 W was used for observation during Swim 1 and Swim 2 procedure. Swim 1 was carried out between 18:30 to 21:30 and Swim 2 was carried out between 19:30 to 21:30.
On test day, animals were dosed intramuscularly with respective treatment 60 min prior to performing FST. […] In swim 2, the first 1-min data was excluded from analysis and the remaining 5 min data was considered.
Rats were placed in the water-filled cylinder for 6 min during Swim 2. […] A rat was judged to be immobile when it remained floating in the water without struggling and was making only those movements necessary to keep its head above water. […] Water was changed after every session to avoid any influence on the next rat. […] The rats were placed in a swim chamber and behaviors were measured for 5 min on test day. Data was presented as total immobility time (in seconds) over the 5-min trial.

human α2B adrenoceptor = human α2B adrenoceptor (Homo sapiens, UniProt P18089); experiment: cell-based
Method: as §3

in vivo = settings: male, Sprague Dawley, rat
Method: Male Sprague Dawley (SD) rats, 200–250 g, purchased from Charles River Laboratories (South San Francisco, CA) were used for microdialyses studies. Upon arrival, rats were group-housed in polycarbonate cages (2-3 rats per cage) and acclimated for at least 7 days prior to commencing the studies. […] Rats were tracked via unique identifying numbers.
Ten male SD rats with a jugular vein (JV) cannula were used in this study. Rats were anesthetized using isoflurane (2%, 800 mL/min O2). Bupivacaine was used for local anesthesia and carprofen for peri-/post-operative analgesia. Animals were placed in a stereotaxic frame (Kopf instruments, United States) and MetaQuant microdialysis probes (PAN membrane, BrainLink, Netherlands) were implanted into the prefrontal cortex (PFC), 4 mm exposed surface. Coordinates for the tips of the probes for the PFC are: antero-posterior (AP) = +3.4 mm from bregma, lateral (L) = −0.8 mm from midline and ventral (V) = −5.0 mm from dura, the toothbar set at −3.3 mm. […] The microdialysis probes were connected with flexible PEEK tubing to a microperfusion pump (Harvard PHD 2000 Syringe pump, Holliston, MA). […] Microdialysis samples were collected for 30 min periods by an automated fraction collector (820 Microsampler, Univentor, Malta) into 300 µL polypropylene mini-vials. […]

[5] = test system: stress-induced immobility after repeated stress; experiment: Open space swim test; settings: for time spent in the periphery, change vs vehicle controls / mean duration of immobility, change vs vehicle controls / mean distance travelled, change vs vehicle controls: Day 8, 40 μg/kg i.p. acute; for time spent in the periphery, change vs vehicle controls: p < 0.001
[6] = molecular target: T5, human α2B adrenergic receptor (Homo sapiens, UniProt P18089); experiment: biochemical
T5 sequence (P18089 1-450): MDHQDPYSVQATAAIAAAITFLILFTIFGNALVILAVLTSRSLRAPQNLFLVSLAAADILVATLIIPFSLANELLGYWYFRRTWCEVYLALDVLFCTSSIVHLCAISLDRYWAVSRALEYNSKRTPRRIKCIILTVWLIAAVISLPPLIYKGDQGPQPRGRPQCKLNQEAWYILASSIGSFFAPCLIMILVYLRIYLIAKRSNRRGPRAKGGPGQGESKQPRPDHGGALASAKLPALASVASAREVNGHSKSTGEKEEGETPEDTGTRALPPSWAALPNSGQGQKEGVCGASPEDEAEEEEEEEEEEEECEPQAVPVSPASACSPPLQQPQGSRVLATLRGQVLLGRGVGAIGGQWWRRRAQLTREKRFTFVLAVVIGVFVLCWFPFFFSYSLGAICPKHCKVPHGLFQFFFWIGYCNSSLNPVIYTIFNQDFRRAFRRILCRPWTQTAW
Method: as §1, §2

memory consolidation = experiment: Cued fear conditioning test; settings: 10 and 20 μg/kg, 30 min before conditioning
From the text: Rats were housed 1 animal per cage in sterilized solid bottom polycarbonate cages (Dimensions 42.5 cm [L] X 26.5 cm [W] X 18.5 cm [H]) with stainless steel grill tops, facilitate for food and water bottle, and bedding of corncob husk.
Rodent fear conditioning chambers (L x W x H, rat: 26 × 30 × 33 cm, Coulbourn instruments. United States) placed in sound attenuating cabinets were used. Stainless steel grid floors (L x W, rat: 26 × 30 cm), connected to shock scramblers were used to deliver the shock. A ventilation fan provided a background noise of 60 dB. A light bulb (centered on the right wall, and 27 cm above the floor of the chamber) provided ambient illumination. Experiments were recorded using video camera, mounted on the cabinet ceiling and images were analyzed with freeze frame 3 software (V3.2.1). The fear conditioning chambers have transparent acrylic panels. All experimentations were carried out in a single fear conditioning chamber.
On day 0, animals were randomized into eight groups based on their body weight.
Session-I: On day 1 (N = 5), rats were brought to the laboratory at least 1 h prior to experimentation. […]
On day 2, rats were brought to the laboratory at least 1 h prior to experimentation. […] The freezing behavior of the animals was recorded for 6 min (starting from the time the animal placed in the fear conditioning chamber). […]

motor coordination = experiment: Rotarod test; settings: 4 mg/kg i.p., 30 min before test; p < 0.01
Method: 75 male Swiss mice (6 weeks old, 29–41 g body weight range at the beginning of the experiment) were supplied by Janvier Labs (Le Genest St Isle, France). […] Environmental enrichment such as gnawing and nesting material was provided.
On Day 0, mice were submitted to two training trials separated by a 5-min interval. For each trial, mice were placed on a rod (diameter: 7 cm) rotating at a speed of 18 revolutions per minute for a 3-min period. On Day 1, a final training was performed in the morning (at least 2 h before the drug testing). On Day 1, the test session was performed at least 2 h after the habituation period (in the afternoon) and mice were placed on the rod for a maximum period of 3 min. The latency to fall off the rod was recorded. Data was analyzed by using one-way ANOVA followed by Dunnett’s comparisons test.75 male Swiss mice (6 weeks old, 29–41 g) were allocated into five groups (10–15 animals per group).

CCK-4 induced anxiety = experiment: CCK-4 elevated plus maze test
From the text: 48 male Wistar rats were supplied by Janvier (Le Genest St Isle, France) for this study. They were purchased at a body weight of 150 g and reached a body weight of about 270 g at the time of use.
In the present study, 12 animals per group were used. The apparatus is a PVC maze covered with Plexiglas and subdivided into four equal exploratory arms (40 × 10 cm), which are all interconnected by a small platform (10 × 10 cm). The apparatus is placed 65 cm above the floor. Two arms are open, and two others are closed with transparent wall (high: 10 cm).
After compound administration, a rat is placed on the platform opposite a closed arm. The number of entries and the time spent on each arm are recorded during a 5 min period. The animal is considered as entered in an arm when it places its four paws in the arm. The apparatus was cleaned between each animal using alcohol (70%). Urine and feces were removed from the maze. Data were analyzed by One way ANOVA followed by Dunnett’s comparisons test. CCK-4 (0.2 mg/kg) was administered intraperitoneally in the Wistar rats 30 min prior to the test. […] 60 min prior to the study (30 min prior to CCK-4 administration). Diazepam (1 mg/kg) was administered 30 min prior to study (at the time of CCK-4 administration). After the administration of compounds, rats were placed on the platform opposite a closed arm in the elevated plus maze. The number of entries and the time spent in each arm were recorded during a 5 min period. The animal was considered as entered in an arm when it placed its four paws in the arm.

[7] = daily i.p. Day 8 to Day 32, 40 μg/kg, p < 0.0001

Which results are given for `Clc1cccc(Cl)c1N=C1NCCN1` [Clonidine]?
Max activity [1]: 76%; Max activity (human α2C adrenoceptor): 8%; intrinsic activity at the α2C-AR ([2]; in words, repeated in two assay systems): very low intrinsic activity; Max activity [2]: 32%; Max activity (human α2A adrenoceptor): 93%

Which Max activity [1] does the source give for `Cc1cccc([C@H](C)c2cnc[nH]2)c1C` [Dexmedetomidine] here?
Its Max activity is 89%.

What about the “bound to plasma proteins” value [3] of the same compound?
The value was 84%.

What about the “onset of SWS” value (sleep onset latency; 5 μg/kg intramuscular) of the same compound?
Its value is “significantly reduced”.

What about the “onset of SWS” value (sleep onset latency; 20 μg/kg intramuscular) of the same compound?
Its value is “significantly reduced”.

And the immobility time ([4]; 1 μg/kg intramuscular, p = 0.0238)?
The immobility time was “significantly decreased”.

What about the immobility time ([4]; 5 μg/kg intramuscular, p < 0.0001) of the same compound?
The immobility time was “significantly decreased”.

And the EC50 (human α2C adrenoceptor)?
The EC50 was 24 nM.

What about the Max activity (human α2C adrenoceptor) of the same compound?
The Max activity was 95%.

What about the EC50 (human α2B adrenoceptor) of the same compound?
Its EC50 is 0.6 nM.

What about the Max activity (human α2B adrenoceptor) of the same compound?
Its Max activity is 106%.

What about the Tmax (in vivo) of the same compound?
The Tmax was 30 to 60 min.

What about the EC50 [2] of the same compound?
The EC50 was 14 nM.

What about the Max activity [2] of the same compound?
The Max activity was 110%.

What about the “time spent in the periphery, change vs vehicle controls” value ([5]; first treated group) of the same compound?
Its value is “+159%”.

What about the “mean duration of immobility, change vs vehicle controls” value ([5]; first treated group, p < 0.01) of the same compound?
Its value is −43%.

And the “mean distance travelled, change vs vehicle controls” value ([5]; first treated group, p < 0.05)?
Its value is “+31%”.

And the “time spent in the periphery, change vs vehicle controls” value ([5]; second treated group)?
Its value is “+138%”.

What about the “mean distance travelled, change vs vehicle controls” value ([5]; second treated group, p < 0.01) of the same compound?
Its value is “+36%”.

What about the “mean duration of immobility, change vs vehicle controls” value ([5]; second treated group, p < 0.01) of the same compound?
Its value is −36%.

What about the “mean distance travelled over the testing period” value [5, 7] of the same compound?
Its value is “increased”.

What about the “mean duration of immobility over the testing period” value [5, 7] of the same compound?
The value was “decreased”.

What about the “time spent in the periphery over the testing period” value [5, 7] of the same compound?
Its value is “increased”.

What about the EC50 [6] of the same compound?
The EC50 was 2.8 nM.

And the Max activity [6]?
Its Max activity is 147%.

What about the “memory formation (duration of freezing)” value (memory consolidation) of the same compound?
Its value is “did not impair memory formation”.

What about the Max activity (human α2A adrenoceptor) of the same compound?
The Max activity was 101%.

What does the source list for `CN1C(=O)CN=C(c2ccccc2)c2cc(Cl)ccc21` [Diazepam]?
latency to fall-off, change vs vehicle controls (motor coordination): −60%; effects in elevated plus maze, positive control (CCK-4 induced anxiety; 1 mg/kg, 30 min prior, with CCK-4): exceeded those measured in vehicle animals

Which results are given for `N=C(N)NC(=O)Cc1c(Cl)cccc1Cl` [Guanfacine]?
Max activity [1]: 78%; Max activity (human α2C adrenoceptor): 68%; Max activity [2]: 72%; Max activity (human α2A adrenoceptor): 100%

With `CC(Oc1c(Cl)cccc1Cl)C1=NCCN1` (centres unmarked) [Lofexidine] as the compound, how does the EC50 [2] read?
The EC50 was 23 nM.

And the Max activity [2]?
The Max activity was 50%.

What about the EC50 [6] of the same compound?
Its EC50 is 43 nM.

What about the Max activity ([6]; α2BR, relative to maximal response of UK-14304) of the same compound?
The Max activity was 97%.

With `CN(C)CCCN1c2ccccc2CCc2ccccc21` [imipramine] as the compound, how does the “immobility time, positive control” value ([4]; 30 mg/kg) read?
The value was “p = 0.0002 versus vehicle”.

Which “number of entries in the open arms” value (CCK-4 induced anxiety; CCK-4 0.2 mg/kg i.p. alone, vehicle 4.3) does the source give for Cholecystokinin tetrapeptide [CCK-4] here?
Its value is 1.3.

What about the “time spent in the open arms” value (CCK-4 induced anxiety; CCK-4 0.2 mg/kg i.p. alone, vehicle 45 s) of the same compound?
Its value is 6 s.
